Square brackets hold non-standard residues; d marks the D form. Peptide text beside a SMILES is read from it. * marks the point of attachment. Tyr(3-Cl) = N[C@@H](Cc1ccc(O)c(Cl)c1)C(=O)O; Benzoyl(3,5-Cl2) = O=C(c1cc(Cl)cc(Cl)c1)*; Lys(Et2) = CCN(CC)CCCC[C@H](N)C(=O)O; Gly(cPent) = N[C@H](C(=O)O)C1CCCC1; NH(propargyl) = C#CCN*
Legend:
Format in all cases: cell-based
[1] = biological target: T1, CBX8 bulk chromatin binding (Homo sapiens, UniProt Q9HC52); assay: Sequential salt extraction (SSE) in HEK293T cells; details: 10 μM
T1 construct: endogenous in cells; host or cells: HEK293T (A19)

[2] = biological target: T2, CBX7 bulk chromatin binding (Homo sapiens, UniProt O95931); assay: Sequential salt extraction (SSE) in HEK293T cells; details: 10 μM
T2 construct: endogenous in cells; host or cells: Hs68 fibroblasts (A17); HEK293T (A20)

[3] = biological target: T3, CBX2 bulk chromatin binding (Homo sapiens, UniProt Q14781); assay: Sequential salt extraction (SSE) in HEK293T cells; details: 10 μM
T3 construct: endogenous in cells; host or cells: HEK293T (A21); K562 (A22)

LNCaP_NED cells = assay: LNCaP_NED cell proliferation, viability and morphology
Description: (§1) FIG. 12A). Neuroendocrine differentiation (NED) of prostate cancer induced by androgen deprivation. Representative pictures of LNCaP cells treated with normal media or charcoal-stripped serum (CSS) media for 6 days to induce neuroendocrine differentiation (LNCaP_NED). FIG. 12B). Transcriptional fold changes of KLK3/TMPRSS2/ENO2/CHGA were quantified normalized to control gene YWHAZ upon CSS media treatment for 6 or 9 days. FIG. 12C). Western blotting of CBX paralogs in LNCaP and LNCaP_NED cells generated from 14-day CSS treatment. FIG. 12D). Cell proliferation of LNCaP_NED following 5 days incubation with 2 or 10 μM SW2_152F. DMSO was used as negative control. FIG. 12E). LNCaP_NED cells were treated with 10 μM SW2_152F for 24 h-96 h. Cell morphology pictures were captured starting from 24 h. Average cell size were plotted at 24 h or 48 h for both DMSO group and compound treated group. FIG. 12F). LNCaP_NED cells were treated with 10 μM or 50 μM SW2_152F for 48 hours. Transcriptional fold change of genes (KLK3/TMPRSS2/AR/CBX2) were normalized to YWHAZ in LNCaP_NED cells with SW2_152F treatment or DMSO. FIG. 12G). LNCaP cells were treated with DMSO. LNCaP_NED cells were treated with DMSO, 10 μM GSK343 or 10 μM SW2_152F for 48 hours. Whole cell lysates were extracted for western blotting. FIG. 12H). LNCaP_NED cells were treated with DMSO or 10 μM SW2_152F for 4 hours before harvest. Binding of H3K27me3 and CBX2 at specific genomic sites (KLK3/TMPRSS2, e: enhancer, p: promoter) were evaluated using chromatin immunoprecipitation-qPCR. For all experiments in the figure, error bars represent SEM n=3 biological replicates, p-values were calculated using two-tailed Student's t-test, *=p<0.05, **=p<0.01, ***=p<0.001, ****=p<0.0001.
Cellular Activity of CBX2 Inhibitor in Neuroendocrine Differentiation of Prostate Cancer—Generation of a Prostate Cancer Neuroendocrine Differentiation (NED) System. To generate an in vitro model for NED, we cultured the androgen-sensitive prostate cancer cell line LNCaP in charcoal-stripped serum (CSS), which lacks androgens as well as other steroids. Upon treatment with CSS media, LNCaP cells adopted morphological characteristics of neuroendocrine-like cells (LNCaP_NED), which include dominant nucleus, limited cytoplasm, dendrites (FIG. 12A) and a decreased proliferation rate. To monitor transcriptional changes during androgen deprivation, we quantified the changes in expression of two NED markers (ENO2 and CHGA) and two AR target genes (KLK3 and TMPRSS2) by RT-qPCR during 15 days of androgen deprivation. […] To verify that LNCaP_NED cells become resistant to AR antagonists, we tested the effects of the AR antagonist enzalutamide (ENZA) on cell proliferation.

[4] = test system: RWPE-1 cells, HEK293T cells; assay: Viability of non-transformed / control cells
[5] = test system: KLK3/TMPRSS2/AR/CBX2 expression; assay: Transcriptional fold change in LNCaP_NED cells; details: 10 μM or 50 μM, 48 hours
Description: as §1, with “Transcriptional fold change of genes (KLK3/TMPRSS2/AR/CBX2) were normalized to YWHAZ in LNCaP_NED cells with SW2_152F treatment or DMSO. FIG. 12G). LNCaP cells were treated with DMSO. LNCaP_NED cells were treated with DMSO, 10 μM GSK343 or 10 μM SW2_152F for 48 hours. Whole cell lysates were extracted for western blotting. FIG. 12H). LNCaP_NED cells were treated with DMSO or 10 μM SW2_152F for 4 hours before harvest.” left out, “****=p<0.0001. […]” for “****=p<0.0001.”

[6] = biological target: T4, CBX2 and H3K27me3 at KLK3/TMPRSS2 enhancers and promoters (Homo sapiens, UniProt Q14781); assay: ChIP-qPCR in LNCaP_NED cells; details: 10 μM, 4 hours
T4 construct: endogenous in cells
Description: as §1, with “Transcriptional fold change of genes (KLK3/TMPRSS2/AR/CBX2) were normalized to YWHAZ in LNCaP_NED cells with SW2_152F treatment or DMSO. FIG. 12G). LNCaP cells were treated with DMSO. LNCaP_NED cells were treated with DMSO, 10 μM GSK343 or 10 μM SW2_152F for 48 hours. Whole cell lysates were extracted for western blotting. FIG. 12H). LNCaP_NED cells were treated with DMSO or 10 μM SW2_152F for 4 hours before harvest.” left out, “****=p<0.0001. […]” for “****=p<0.0001.”

T4 sequence (Q14781 whole entry): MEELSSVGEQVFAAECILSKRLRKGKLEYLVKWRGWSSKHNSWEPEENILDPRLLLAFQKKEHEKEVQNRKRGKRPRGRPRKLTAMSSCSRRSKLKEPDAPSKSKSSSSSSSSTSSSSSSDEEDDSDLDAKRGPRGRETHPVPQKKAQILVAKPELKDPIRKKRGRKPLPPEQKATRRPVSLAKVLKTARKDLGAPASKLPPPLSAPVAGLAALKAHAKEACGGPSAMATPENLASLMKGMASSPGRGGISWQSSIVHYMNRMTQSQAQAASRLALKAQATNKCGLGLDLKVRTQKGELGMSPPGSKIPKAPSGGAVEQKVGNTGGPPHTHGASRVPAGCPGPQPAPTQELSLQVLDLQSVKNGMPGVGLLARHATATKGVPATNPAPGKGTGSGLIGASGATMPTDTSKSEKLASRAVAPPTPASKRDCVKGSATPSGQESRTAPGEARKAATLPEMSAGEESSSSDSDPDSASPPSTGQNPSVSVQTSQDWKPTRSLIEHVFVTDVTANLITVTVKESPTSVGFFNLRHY
T3 sequence (Q14781 whole entry): as above
T1 sequence (Q9HC52 whole entry): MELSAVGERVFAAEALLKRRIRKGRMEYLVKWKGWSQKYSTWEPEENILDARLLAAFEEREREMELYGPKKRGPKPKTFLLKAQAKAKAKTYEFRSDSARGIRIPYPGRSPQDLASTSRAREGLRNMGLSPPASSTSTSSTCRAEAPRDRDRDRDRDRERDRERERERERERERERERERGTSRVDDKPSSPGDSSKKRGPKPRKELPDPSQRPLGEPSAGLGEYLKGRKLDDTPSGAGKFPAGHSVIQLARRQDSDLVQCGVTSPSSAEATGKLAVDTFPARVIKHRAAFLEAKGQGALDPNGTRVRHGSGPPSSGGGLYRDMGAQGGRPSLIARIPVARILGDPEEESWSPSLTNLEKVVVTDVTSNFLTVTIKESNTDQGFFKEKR
T2 sequence (O95931 whole entry): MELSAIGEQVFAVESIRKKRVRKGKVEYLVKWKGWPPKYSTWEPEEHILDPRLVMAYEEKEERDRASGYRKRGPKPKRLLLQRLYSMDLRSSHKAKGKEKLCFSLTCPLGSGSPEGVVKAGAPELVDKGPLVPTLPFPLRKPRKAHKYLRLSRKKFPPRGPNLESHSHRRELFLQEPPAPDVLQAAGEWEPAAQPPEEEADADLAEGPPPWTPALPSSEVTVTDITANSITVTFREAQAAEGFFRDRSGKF

- CBX8 binding to chromatin, SSE [1]: only a modest change
- CBX7 binding to chromatin, SSE [2]: No effect
Structure (SMILES): C#CCNC(=O)[C@H](CO)NC(=O)[C@H](CCCCN(CC)CC)NC(=O)[C@@H](NC(=O)[C@@H](NC(=O)[C@H](Cc1ccc(O)c(Cl)c1)NC(=O)c1cc(Cl)cc(Cl)c1)C1CCCC1)[C@@H](C)CC [SW2_152F] ({Benzoyl(3,5-Cl2)}-[Tyr(3-Cl)][Gly(cPent)]I[Lys(Et2)]S-{NH(propargyl)})
- CBX2 binding to chromatin, SSE [3]: dramatically abrogated CBX2 binding to chromatin
- cell size and dendrites of LNCaP_NED cells (LNCaP_NED cells; 10 μM, 24 h or 48 h): significantly decreased average cell size and reduced dendrites
- LNCaP_NED cell proliferation (LNCaP_NED cells; 2 or 10 μM, 5 days): significantly inhibited LNCaP_NED cell proliferation
- LNCaP_NED cell viability, combination with ENZA (LNCaP_NED cells; both compounds, 4 days, compared to either alone): significantly decreased
- viability of RWPE-1 cells or HEK293T cells [4]: did not affect the viability
- CBX2 expression [5]: remained unchanged
- expression of AR and AR-target genes (TMPRSS2 and KLK3) [5]: significantly increased
- CBX2 binding at AR target genes, ChIP-qPCR [6]: abrogates CBX2 binding at the KLK3 (PSA)/TMPRSS2 enhancers and promoters
- H3K27me3 enrichment at AR target genes, ChIP-qPCR [6]: reduces H3K27me3 enrichment specifically at these sites

From patent US20210284691A1, “CBX8 CHROMDOMAIN INHIBITORS AND THE USES THEREOF” (Purdue Research Foundation, priority 2019, published 2021)
